Assay results reported in ChEMBL document CHEMBL2439971, “Design, synthesis and antiproliferative evaluation of fluorenone analogs with DNA topoisomerase I inhibitory properties” (Bioorg Med Chem, 2013).
Activity calls are given as the source filed them. The calls are words filed in the database; no cut-off is given here.

What was measured:
[1] = species: Homo sapiens; test: Inhibition of telomerase (unknown origin) at 10 uM TRAP assay
[2] = system: CAKI-1; test: Cytotoxicity against human CAKI-1 cells at 10 uM after 48 hrs by sulforhodamine B assay relative to control; type: functional
[3] = system: MDA-MB-468; test: Cytotoxicity against human MDA-MB-468 cells at 10 uM after 48 hrs by sulforhodamine B assay relative to control; type: functional
[4] = system: T47D; test: Cytotoxicity against human T47D cells at 10 uM after 48 hrs by sulforhodamine B assay relative to control; type: functional
[5] = system: BT-549; test: Cytotoxicity against human BT549 cells at 10 uM after 48 hrs by sulforhodamine B assay relative to control; type: functional
[6] = Cytotoxicity against human Hs 578T cells at 10 uM after 48 hrs by sulforhodamine B assay relative to control; type: functional
[7] = system: MDA-MB-231; test: Cytotoxicity against human MDA-MB-231 cells at 10 uM after 48 hrs by sulforhodamine B assay relative to control; type: functional
[8] = system: MCF7; test: Cytotoxicity against human MCF7 cells at 10 uM after 48 hrs by sulforhodamine B assay relative to control; type: functional
[9] = system: DU-145; test: Cytotoxicity against human DU145 cells at 10 uM after 48 hrs by sulforhodamine B assay relative to control; type: functional
[10] = system: PC-3; test: Cytotoxicity against human PC3 cells at 10 uM after 48 hrs by sulforhodamine B assay relative to control; type: functional
[11] = system: UO-31; test: Cytotoxicity against human UO31 cells at 10 uM after 48 hrs by sulforhodamine B assay relative to control; type: functional
[12] = system: SN12C; test: Cytotoxicity against human SN12C cells at 10 uM after 48 hrs by sulforhodamine B assay relative to control; type: functional
[13] = system: RXF 393; test: Cytotoxicity against human RXF393 cells at 10 uM after 48 hrs by sulforhodamine B assay relative to control; type: functional
[14] = system: ACHN; test: Cytotoxicity against human ACHN cells at 10 uM after 48 hrs by sulforhodamine B assay relative to control; type: functional
[15] = system: A498; test: Cytotoxicity against human A498 cells at 10 uM after 48 hrs by sulforhodamine B assay relative to control; type: functional
[16] = system: 786-0; test: Cytotoxicity against human 786-0 cells at 10 uM after 48 hrs by sulforhodamine B assay relative to control; type: functional
[17] = system: SK-OV-3; test: Cytotoxicity against human SKOV3 cells at 10 uM after 48 hrs by sulforhodamine B assay relative to control; type: functional
[18] = system: NCI/ADR-RES; test: Cytotoxicity against human NCI/ADR-RES cells at 10 uM after 48 hrs by sulforhodamine B assay relative to control; type: functional
[19] = system: OVCAR-8; test: Cytotoxicity against human OVCAR8 cells at 10 uM after 48 hrs by sulforhodamine B assay relative to control; type: functional
[20] = system: OVCAR-5; test: Cytotoxicity against human OVCAR5 cells at 10 uM after 48 hrs by sulforhodamine B assay relative to control; type: functional
[21] = system: OVCAR-3; test: Cytotoxicity against human OVCAR3 cells at 10 uM after 48 hrs by sulforhodamine B assay relative to control; type: functional
[22] = system: IGROV-1; test: Cytotoxicity against human IGROV1 cells at 10 uM after 48 hrs by sulforhodamine B assay relative to control; type: functional
[23] = system: UACC-62; test: Cytotoxicity against human UACC62 cells at 10 uM after 48 hrs by sulforhodamine B assay relative to control; type: functional
[24] = system: UACC-257; test: Cytotoxicity against human UACC257 cells at 10 uM after 48 hrs by sulforhodamine B assay relative to control; type: functional
[25] = system: SK-MEL-5; test: Cytotoxicity against human SK-MEL-5 cells at 10 uM after 48 hrs by sulforhodamine B assay relative to control; type: functional
[26] = system: SK-MEL-28; test: Cytotoxicity against human SK-MEL-28 cells at 10 uM after 48 hrs by sulforhodamine B assay relative to control; type: functional
[27] = system: SK-MEL-2; test: Cytotoxicity against human SK-MEL-2 cells at 10 uM after 48 hrs by sulforhodamine B assay relative to control; type: functional
[28] = system: MDA-MB-435; test: Cytotoxicity against human MDA-MB-435 cells at 10 uM after 48 hrs by sulforhodamine B assay relative to control; type: functional
[29] = system: M14; test: Cytotoxicity against human M14 cells at 10 uM after 48 hrs by sulforhodamine B assay relative to control; type: functional
[30] = system: Malme-3M; test: Cytotoxicity against human MALME-3M cells at 10 uM after 48 hrs by sulforhodamine B assay relative to control; type: functional
[31] = system: LOX IMVI; test: Cytotoxicity against human LOXIMVI cells at 10 uM after 48 hrs by sulforhodamine B assay relative to control; type: functional
[32] = system: SNB-75; test: Cytotoxicity against human SNB75 cells at 10 uM after 48 hrs by sulforhodamine B assay relative to control; type: functional
[33] = system: U-251; test: Cytotoxicity against human U251 cells at 10 uM after 48 hrs by sulforhodamine B assay relative to control; type: functional
[34] = system: SF-539; test: Cytotoxicity against human SF539 cells at 10 uM after 48 hrs by sulforhodamine B assay relative to control; type: functional
[35] = system: SNB-19; test: Cytotoxicity against human SNB19 cells at 10 uM after 48 hrs by sulforhodamine B assay relative to control; type: functional
[36] = system: SF-295; test: Cytotoxicity against human SF295 cells at 10 uM after 48 hrs by sulforhodamine B assay relative to control; type: functional
[37] = system: SF-268; test: Cytotoxicity against human SF268 cells at 10 uM after 48 hrs by sulforhodamine B assay relative to control; type: functional
[38] = system: SW-620; test: Cytotoxicity against human SW620 cells at 10 uM after 48 hrs by sulforhodamine B assay relative to control; type: functional
[39] = system: KM12; test: Cytotoxicity against human KM12 cells at 10 uM after 48 hrs by sulforhodamine B assay relative to control; type: functional
[40] = system: HT-29; test: Cytotoxicity against human HT-29 cells at 10 uM after 48 hrs by sulforhodamine B assay relative to control; type: functional
[41] = system: HCT-15; test: Cytotoxicity against human HCT15 cells at 10 uM after 48 hrs by sulforhodamine B assay relative to control; type: functional
[42] = system: HCT-116; test: Cytotoxicity against human HCT116 cells at 10 uM after 48 hrs by sulforhodamine B assay relative to control; type: functional
[43] = system: HCC 2998; test: Cytotoxicity against human HCC2998 cells at 10 uM after 48 hrs by sulforhodamine B assay relative to control; type: functional
[44] = system: COLO 205; test: Cytotoxicity against human COLO205 cells at 10 uM after 48 hrs by sulforhodamine B assay relative to control; type: functional
[45] = system: NCI-H522; test: Cytotoxicity against human NCI-H522 cells at 10 uM after 48 hrs by sulforhodamine B assay relative to control; type: functional
[46] = system: NCI-H460; test: Cytotoxicity against human NCI-H460 cells at 10 uM after 48 hrs by sulforhodamine B assay relative to control; type: functional
[47] = system: NCI-H322M; test: Cytotoxicity against human NCI-H322M cells at 10 uM after 48 hrs by sulforhodamine B assay relative to control; type: functional
[48] = system: NCI-H23; test: Cytotoxicity against human NCI-H23 cells at 10 uM after 48 hrs by sulforhodamine B assay relative to control; type: functional
[49] = system: NCI-H226; test: Cytotoxicity against human NCI-H226 cells at 10 uM after 48 hrs by sulforhodamine B assay relative to control; type: functional
[50] = system: HOP-92; test: Cytotoxicity against human HOP92 cells at 10 uM after 48 hrs by sulforhodamine B assay relative to control; type: functional
[51] = system: HOP-62; test: Cytotoxicity against human HOP62 cells at 10 uM after 48 hrs by sulforhodamine B assay relative to control; type: functional
[52] = system: A549; test: Cytotoxicity against human A549 cells at 10 uM after 48 hrs by sulforhodamine B assay relative to control; type: functional
[53] = system: RPMI-8226; test: Cytotoxicity against human RPMI8226 cells at 10 uM after 48 hrs by sulforhodamine B assay relative to control; type: functional
[54] = system: MOLT-4; test: Cytotoxicity against human MOLT4 cells at 10 uM after 48 hrs by sulforhodamine B assay relative to control; type: functional
[55] = system: K562; test: Cytotoxicity against human K562 cells at 10 uM after 48 hrs by sulforhodamine B assay relative to control; type: functional
[56] = system: HL-60(TB); test: Cytotoxicity against human HL-60(TB) cells at 10 uM after 48 hrs by sulforhodamine B assay relative to control; type: functional
[57] = system: CCRF-CEM; test: Cytotoxicity against human CCRF-CEM cells at 10 uM after 48 hrs by sulforhodamine B assay relative to control; type: functional
[58] = system: PC-3; test: Cytotoxicity against human PC3 cells after 48 hrs by sulforhodamine B assay; type: functional, cell-based; conditions: PC-3, 48 h

CCSCCC(=O)Nc1ccc2c(c1)C(=O)c1cc(NC(=O)CCSCC)ccc1-2
inhibition [1]: inactive | Activity [2]: 108.37% | Activity [3]: 109.99% | Activity [4]: 103.44% | Activity [5]: 97.04% | Activity [6]: 109.39% | Activity [7]: 118.39% | Activity [8]: 94.51% | Activity [9]: 112.53% | Activity [10]: 100% | Activity [11]: 92.9% | Activity [12]: 102.91% | Activity [13]: 105.75% | Activity [14]: 112.08% | Activity [15]: 124.53% | Activity [16]: 96.11% | Activity [17]: 110.74% | Activity [18]: 103.59% | Activity [19]: 94.28% | Activity [20]: 109.71% | Activity [21]: 123.89% | Activity [22]: 122.92% | Activity [23]: 107.97% | Activity [24]: 113.41% | Activity [25]: 108.49% | Activity [26]: 103.35% | Activity [27]: 117.38% | Activity [28]: 112.56% | Activity [29]: 101.8% | Activity [30]: 125.15% | Activity [31]: 69.5% | Activity [32]: 92.1% | Activity [33]: 102.62% | Activity [34]: 86.16% | Activity [35]: 106.91% | Activity [36]: 85.58% | Activity [37]: 122.03% | Activity [38]: 116.5% | Activity [39]: 117.91% | Activity [40]: 92.74% | Activity [41]: 104.94% | Activity [42]: 100.1% | Activity [43]: 107.5% | Activity [44]: 118.9% | Activity [45]: 90.06% | Activity [46]: 108.3% | Activity [47]: 117.16% | Activity [48]: 100.62% | Activity [49]: 104.85% | Activity [50]: 103.43% | Activity [51]: 119.93% | Activity [52]: 106.07% | Activity [53]: 103.94% | Activity [54]: 102.08% | Activity [55]: 102.87% | Activity [56]: 109.4% | Activity [57]: 96.61% | IC50 [58]: > 30 µM
